We go through four molecules from patent EP0299533B1, “High potency sweetening agents” (THE NUTRASWEET COMPANY (a Delaware corporation), priority 1987, dated 1989).

Data set [1] is described as follows: Stability in aqueous sodium phosphate buffer at pH 3, percent remaining by HPLC. The data set is classed as physicochemical. Particulars: for half-life: phosphate buffer. As to the method: Compound 1 above was dissolved in an aqueous sodium phosphate buffer at a pH of 3 at a concentration of 30 µg/ml. The buffer was prepared by adding concentrated phosphoric acid to sodium phosphate […] until the pH was 3.0. This solution was then maintained at 90°C for 6 days. The percent of compound 1 remaining after 6 days was 98%. […] The half-life was estimated to be 177 days in this buffer at 90°C. The stability of the glycine derivative of this compound, i.e., 1′-N-[N-cyclooctylamino(4-cyanophenylimino)methyl]-glycine was determined in the same way as Cpd. 1 except at 70°C and 50°C instead of 90°C. […] The calculated half-life at 90°C is about 2 days.

A short description of data set [2]: Taste test: compound was tasted for sweetness. The data set is classed as in vivo. The method, then: A mixture of 5-aminomethyltetrazole (0.50 g, 5.05 mmol), sodium hydroxide (0.20 g, 5.00 mmol) and 1.5 ml of water was added to a solution of N-cyclooctyl-N′-(4-cyanophenyl)-S-methylisothiourea (1.52 g, 5.05 mmol) in 15 ml of absolute ethanol. The mixture was heated to 70° for 20 hours. After cooling, the solution was concentrated to dryness and the residue was dissolved in 20 ml of water. The resulting solution was washed with dichloromethane (3 x 20 ml) and then neutralized with a 1 N HCl solution to bring its pH to 7.5. The desired guanidine compound precipitated and was separated out by filtration to give 1.2 g (70%) of white solid. PMR (CD₃OD) δ 7.75 (d, J=8 Hz, 2H), 7.41 (d, J=8 Hz, 2H), 4.70 (s, 2H), 3.82 (m, 1H) and 1.96-1.46 (m, 14H). CMR (DMSO-D6) δ 158.3, 153.3, 144.0, 133.7, 122.0, 119.0, 105.5, 52.8, 37.8, 31.2, 26.8, 24.6 and 22.9. Analysis calculated for C₁₈H₂₄N₈ (0.6 H₂O): C, 59.52; H, 6.99; N, 30.85. Found: C, 59.38; H, 7.07; N, 31.18. The compound was tasted and was sweeet at a concentration of 10 ug/ml.
All the compounds presented in Examples 1 through 42 were tasted and were sweet.

Counter-ions that a name gives are not always drawn.

One may read the half-life as the time needed for the level to fall by half in the phase considered. Turning to `N#Cc1ccc(NC(=NCC(=O)O)NC2CCCCCCC2)cc1` [glycine derivative, 1′-N-[N-cyclooctylamino(4-cyanophenylimino)methyl]-glycine, reference compound], the half-life in data set [1] (pH 3, buffer pH 3, 50°C) is 13 days; in data set [1] (pH 3, buffer pH 3, 70°C), 5 days.
Take `N#Cc1ccc(NC(=NCc2nnn[nH]2)NC2CC3CCC(=O)CC3C2)cc1` (stereo not drawn) [Example 42, 1′-N-[N′-2-Amino-6-oxo-cis-hydrindane (4-Cyanophenylimino)methyl]-5-Aminomethyltetrazole]: the “concentration at which the compound was tasted and was sweet” value in data set [2] turned out to be 100 µg/mL.
Consider `N#Cc1ccc(N=C(NCc2nnn[nH]2)NC2CCCCCCC2)cc1` [Example 1 HCl salt], for which the taste when tasted entry in data set [2] (no concentration given) is reported as “sweet”.
Broadly, the amount remaining is what is left of the initial amount, in per cent. Consider `N#Cc1ccc(NC(=NCc2nnn[nH]2)NC2CCCCCCC2)cc1` [Example 1, 1'-N-[N-Cyclooctylamino (4-Cyanophenylimino)methyl]-5-Aminomethyltetrazole], for which the “concentration at which the compound was tasted and was sweet” value in data set [2] amounted to 10 µg/mL. Moreover, in data set [1] (aqueous sodium phosphate buffer pH 3, 30 µg/ml, 90°C, 6 days, HPLC, read-out: percent of compound remaining after 6 days), the share remaining at 144 h came out at 98%. For the same molecule, the half-life in data set [1] (pH 3, buffer pH 3, 90°C, estimated) is 177 days.
